Among the data in a melting point compilation (Tetko et al.; mined from patent text by program, amines drawn as free bases though some values may be those of a salt) are melting point values, retold here.

As usually defined, the melting point is the temperature, or range, at which the solid turns liquid.

Regarding `COc1ccc2[nH]cc(CC(=O)N3CCN(c4ccc([N+](=O)[O-])cc4)CC3)c2c1`, the melting point fell in the range of 239 to 240 °C.

In turn, `CC(=O)n1c(Br)cc(-c2ccc(F)cc2)c1-c1ccc(S(C)(=O)=O)cc1` returned a melting point of 121 to 125 °C.

As for `CC1SC(=O)NN=C1c1ccc2c(c1)C(=NNC(=O)c1ccccn1)C(=O)N2` (stereo not drawn), the melting point was above 300 °C.

Take `C#C[C@@H](C)N(O)C(N)=O`: the melting point lay in the range of 120 to 123 °C.

`COc1ccc(CSc2cc(OC)c(OC)c(OC)c2)cc1` came in with a melting point of 65 to 67 °C.

On to `CC(C)n1nc(-c2c(Nc3ccccc3)nc(N)nc2-c2ccc(F)cc2)ccc1=O`, for which the melting point is above 250 °C.

In turn, `CC(=O)Nc1ccc2c(c1)OCO2` displayed a melting point of 138 to 139 °C.

`Clc1ccc(N2CC(c3ccccc3)=C(c3ccccc3)C2)cc1` came in with a melting point of 158 °C.

In turn, `O=C1NC(=O)c2c1c(-c1ccccc1Cl)cc1oc3cc(OCCCN4CCCC4)c(O)cc3c21` yielded a melting point of 302 to 304 °C.

Take `O=C(O)CCCCc1ccc2cncn2c1`: the melting point fell in the range of 168 to 171 °C.

`COC(=O)c1ccc2nc(C)n(Cc3ccc(C=C4SC(=O)NC4=O)cc3Cl)c2n1` displayed a melting point above 300 °C.

Regarding `NC(=O)c1ccc(CN2C(=O)C3(COc4cc5c(cc43)OCCO5)c3ccccc32)cc1` (stereo not drawn), the melting point was 236 to 238 °C.

In turn, `Cn1c(=O)c(C(=O)O)c(-c2ccccc2Cl)c2ccncc21` gave a melting point above 250 °C.

`O=C(O)c1cccc(Cl)c1C(F)(F)F` came in with a melting point of 110 °C.

In the case of `CCCCOc1ccc(/C=C/c2cc(OC)cc(OC)c2)cc1`, the melting point is 54 to 56 °C.

As for `Cc1ccc(-c2ccccc2C(=O)Nc2ccc(C(=O)N3C[C@@H]4CCCN4C(=O)c4ccccc43)cc2)cc1`, the melting point lay within 230 to 232 °C.

In the case of `NC(=O)[C@H](Cc1ccccc1)N1C(=O)c2ccccc2C1=O`, the melting point lay in the range of 211 to 215 °C.

The compound `Cc1cc(C)cc(COCC(NC(=O)c2ccccc2)C(c2ccccc2)c2ccccc2)c1` (stereo not drawn) registered a melting point of 128 to 129 °C.

As for `CC1CCN(c2ccc(N)cc2C(O)c2ccc(Cl)cc2)CC1` (stereo not drawn), the melting point came to 89 °C.

Turning to `CC(CC(=O)O)c1ccc(-c2ccc(F)cc2F)cc1` (stereo not drawn), the melting point was 109 to 110 °C.

In the case of `CNc1cc(NS(=O)(=O)c2ccccc2)ccc1[N+](=O)[O-]`, the melting point fell in the range of 172 to 174 °C.

`CN(C)c1nn2nnnc2c2c1CCCC2` registered a melting point of 239 to 240 °C.

For `O=C(O)CCN1CCN2c3ccccc3Sc3ccccc3C2C1` (stereo not drawn), the melting point is 218 to 220 °C.

As to `C[Si](C)(C)OC1(c2ccccc2F)C(=O)Nc2ccc(Cl)cc21` (stereo not drawn), the melting point fell in the range of 125 to 127 °C.

Compound `CCn1cc(C(=O)O)c(=O)c2cc(F)c(N3CC(C)(N)C3)c(F)c21` gave a melting point of 293 to 296 °C.

For the compound `CON(c1ccc([N+](=O)[O-])cc1Cl)S(=O)(=O)c1cccc(C(F)(F)F)c1`, the melting point was 95.5 to 96.5 °C.

`CCN(CCO)CCN1C(=O)c2ccccc2C1=O` had a melting point of 56 to 58 °C.

In the case of `O=[N+]([O-])c1ccc(C(Cl)Cl)cc1`, the melting point was in the range of 44 to 46 °C.

In turn, `O=C1c2cc3nnn(C4CCC4)c(=O)c3cc2OC2CCCN12` (stereo not drawn) came in with a melting point of 216 to 218 °C.

Regarding `CN1CCCCC1Cn1nc(-c2c(-c3ccccc3)nn3ccccc23)ccc1=O` (stereo not drawn), the melting point lay in the range of 154 to 155 °C.

For `COc1cc(C(=O)N(C(C)C)C2CCCCC2)ccc1Cn1ccc2ncnc-2c1C`, the melting point was in the range of 185 to 187 °C.

The compound `CS(=O)(=O)c1ccc(-c2cc(C(=O)CCCO[N+](=O)[O-])nn2-c2ccc(Cl)cc2)cc1` displayed a melting point of 131 to 132 °C.

Regarding `COc1cc2c(cc1OC)C1CC(=O)C3CCCC3N1CC2` (stereo not drawn), the melting point was in the range of 105 to 114 °C.

In turn, `COc1ccc(C(=O)NC2CCCNC(=O)C2)cc1OC` (stereo not drawn) showed a melting point of 190 to 191 °C.

As to `COc1cc(C)c(C(=O)c2c(Cl)nc(Cl)c(C(C)=O)c2C(F)(F)F)c(OC)c1OC`, the melting point lay in the range of 109 to 112 °C.

As for `CO/C=C1/C(=O)NC(=O)c2ccc(I)cc21`, the melting point is 120 to 121 °C.

With `COc1ccc(C2NCCS2)cc1OC` (stereo not drawn), the melting point lay within 54 to 56 °C.

Turning to `Cn1c(C(=O)Nc2cc3c(cn2)[nH]c2ccccc23)cc2ccccc21`, the melting point is 300 to 301 °C.

As for `COC(=O)CC1NC(=O)C(Cc2ccccc2)NC1=O` (stereo not drawn), the melting point was in the range of 217 to 218 °C.

`O=C(O)CCc1cc(CCN2CCC(C(=O)c3ccc(F)cc3)CC2)cc2c1CCC(NS(=O)(=O)c1ccc(Cl)cc1)C2` (stereo not drawn) displayed a melting point of 210 °C.

`COC(=O)[C@@](C)(CCC1=C(C)C(=O)C(C)=C(C)C1=O)OS(C)(=O)=O`: the melting point lay in the range of 112 to 114 °C.

`CCCCCCNC(=O)Oc1ccc2c(c1)N(Cc1ccccc1)CCC2` gave a melting point of 85 °C.

`CCOC(=O)C1(C(=O)OCC)CCC2(c3cc(OC)c(OC)cc3CCN2C(C)=O)C(C2c3cc(OC)c(OC)cc3CCN2C)C1` (stereo not drawn) had a melting point of 166 to 168 °C.

With `COc1ccc2c(Cc3c(Cl)cncc3Cl)nncc2c1`, the melting point lay in the range of 173 to 175 °C.

For `CC1NC(=O)NN=C1c1ccc(Cl)c(N)c1` (stereo not drawn), the melting point was 226 to 228 °C.

As for `COC(=O)CC(CSC(C)=O)C(=O)O` (stereo not drawn), the melting point was in the range of 120 to 121 °C.

With `CCCCCCCCCCCCCCCCCCS(=O)(=O)c1cc2ccccc2c(N)c1O`, the melting point fell in the range of 84 to 88 °C.

`Cc1ccc(CS(=O)c2nc3cc4c(cc3[nH]2)CCC4)nc1` (stereo not drawn): the melting point fell in the range of 190 to 191 °C.

In the case of `CCCCCCC1(c2ccccc2)CC(O)=CC(=O)O1` (stereo not drawn), the melting point lay in the range of 119 to 120 °C.

Compound `c1ccc(C2CCN(CCC(c3ccccc3)(c3ccccc3)c3nnn[nH]3)CC2)cc1` came in with a melting point of 149 to 157 °C.

The compound `Cc1ccc(OCC(=O)c2cc(C(C)C)c(O)c(C(C)C)c2)cc1` came in with a melting point of 124 to 125 °C.

`CC(C)Sc1cc([Si](C)(C)C)oc1C(=O)Nc1nnn[nH]1`: the melting point fell in the range of 181 to 182 °C.

The compound `COc1ccc2c(=O)sc(C(=O)O)cc2c1` registered a melting point of 278 to 279 °C.

`Nc1nc2ccccc2c2c1ncn2CCCCS(=O)(=O)c1ccccc1` displayed a melting point of 175 to 177 °C.

Regarding `C/C(=C\c1ccc(C(=O)O)cc1)c1ccc2c(c1)C(C)(C)C=CC2(C)C`, the melting point lay within 234 to 236 °C.

Regarding `OCCON=Cc1ccc(-c2ccccc2)cc1`, the melting point was 116 to 118 °C.

In turn, `O=C(CCC(=O)N1CCN(c2ccc(N3C[C@H](CNC(=S)C4CC4)OC3=O)cc2F)CC1)c1ccc(CN2CCOCC2)cc1` showed a melting point of 173 to 174 °C.

As for `O=C(O)CN1CCN(C(=O)c2cc(C(F)(F)F)cc(C(F)(F)F)c2)[C@H](Cc2c[nH]c3ccccc23)C1`, the melting point lay within 152 to 156 °C.

Turning to `COc1cc(OC)nc(C(=O)NS(=O)(=O)Oc2c(Cl)cccc2Cl)n1`, the melting point fell in the range of 136 to 139 °C.

Compound `CC(=O)N(C)c1ccc2c(c1)C(c1ccccc1F)=NCc1cnc(C)n1-2` showed a melting point of 217 to 223 °C.

In the case of `CCc1cnc2c(NC(=O)c3c(Cl)cccc3Cl)cccc2c1CC(=O)NCc1ccccn1`, the melting point lay in the range of 162 to 163 °C.

`Cc1nn(C)c2nc(N(CC(C)C)CC3CC3)c(CN(Cc3cc(C(F)(F)F)cc(C(F)(F)F)c3)c3nnn(C)n3)cc12` showed a melting point of 99 to 101 °C.

The compound `CCOCCOC(=O)c1nc2ccc(COc3cccc(OCc4ccc5ccccc5n4)c3)cc2o1` registered a melting point of 84 to 85 °C.

In turn, `COc1cc2c(cc1OC)/C(=C\c1ccc(OP(=O)(O)O)cc1)C(=O)N2` showed a melting point of 218 to 220 °C.

In turn, `CCN1c2ncc(COc3ccc(F)cc3)cc2C(=O)N(C)c2ccc(Cl)nc21` had a melting point of 143 to 144 °C.

`Brc1nc2ncnc(NCc3ccccc3)c2[nH]1` gave a melting point of 233 to 235 °C.

For `O=C(OCc1ccccc1)N1CCC(c2cc3ccccc3c(=O)[nH]2)CC1`, the melting point fell in the range of 179 to 181 °C.

The compound `CS(=O)(=O)c1cccc(/C=C/C2=CCN(Cc3ccccc3)CC2)c1` came in with a melting point of 150 to 152 °C.

Compound `CS(=O)(=O)C(c1ccc(Cl)cc1)c1ccc(Cl)cc1` gave a melting point of 93 to 94.5 °C.

For the compound `O=c1[nH]c2ccccc2c(=O)n1Cc1ccc(Cl)c(Cl)c1`, the melting point fell in the range of 274 to 275 °C.

Consider `CCC1(CC(=O)O)CCC(c2ccccc2)c2c1n(C)c1cc(OCc3ccc4ccccc4n3)ccc21` (stereo not drawn), for which the melting point fell in the range of 185 to 191 °C.

In turn, `O=NN1CCN(c2ccc(Cl)cc2)C1=O` came in with a melting point of 154 to 156 °C.

Turning to `CC(=O)Nc1ccc(OCCN(CC(=O)c2ccc(OCc3ccccc3)c(OCc3ccccc3)c2)Cc2ccccc2)cc1`, the melting point was in the range of 104 to 106 °C.

On to `Cc1cc(C(=N)NO)ccc1-c1cccc(-c2nc3cc(C(=N)NO)ccc3[nH]2)c1`, for which the melting point lay within 295 to 297 °C.

For the compound `CCNCC1(C)CN(c2c(F)cc3c(=O)c(C(=O)O)cn(C4CC4)c3c2F)C1`, the melting point lay in the range of 250 to 255 °C.

`COc1c(F)cc(Cn2cc[nH]c2=S)cc1F` registered a melting point of 156 to 158 °C.

In turn, `CC(=O)Nc1ncc(Sc2ccc(O)cc2)s1` showed a melting point of 265 to 267 °C.

Take `CCc1noc(CN2C(=O)c3ccccc3C2=O)n1`: the melting point lay within 106 to 107 °C.

Compound `c1ccc2c(c1)C[C@H]1CSC(=Nc3cc[nH]n3)N1C2` registered a melting point of 161 °C.

For the compound `OC(CNC1CC1)c1cccc(F)c1` (stereo not drawn), the melting point was 57.8 to 60 °C.

The compound `O=C(O)/C=C/c1ccc(N2CCC3(CC2)OCCO3)cc1` returned a melting point of 221 to 222 °C.

Take `O=C(O)c1nc(SC2CCCCC2)ccc1SC1CCCCC1`: the melting point lay in the range of 100 to 101 °C.

For `CCCCCCCCCC(O)CNCCNCC(O)CCCCCCCCC` (stereo not drawn), the melting point lay within 130 to 138 °C.

In the case of `O=C(O)CNC(=O)Cc1ccc(Cl)cc1SC(=O)c1ccccc1`, the melting point was 158 to 159 °C.

In turn, `O=c1cc2c(nn1Cc1ccc(Cl)cc1)-c1cc(Br)sc1SCC2` yielded a melting point of 152 to 154 °C.

`COC(=O)[C@@H]1CN(C(=O)OCc2ccccc2)C[C@H]1c1ccc(OC)c(OC2CCCC2)c1` (relative stereo) yielded a melting point of 85 °C.

The compound `O=C(C1CCCCC1)C1CCN(S(=O)(=O)c2ccccc2)CC1` yielded a melting point of 141 to 143 °C.

`COc1ccccc1CNc1ccc2cc(Nc3nnc(C(F)(F)F)o3)ccc2n1` displayed a melting point of 198 °C.
